The nature of series [1]: in vitro. The conditions noted are these: both, human, s9.
The nature of series [2]: HPβCD-FL118 complex dissolution test.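 Further: 20 mL buffer stirred at 100 rpm.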 The series is classed as physicochemical. The note with it: 37° C. How it is done:
The collected samples were analyzed for the concentrations of the supernatants by HPLC.

The nature of the next series: Blood partitioning. The note with it: human whole blood.
Another series deals with CYP3A. In words: in vitro. The note with it: human, microsomes, pH 7.4. How it is done: (§1) The CYP reaction was initiated by adding a CYP probe substrate and incubating at 37° C. for 10-20 minutes, depending on the individual CYP isoform. The reaction was terminated with the addition of 400 μL ice-cold acetonitrile (ACN). […] Positive controls were performed in parallel using a known inhibitor of the individual CYP isoform. […] The samples were then transferred to 96-well plates and analyzed by LC-MS/MS (Appendix 1).

The subject of the next series is CYP1A2 mRNA. In words: CYP induction (mRNA) in fresh human hepatocytes. The conditions noted are these: human, 3 days, 50 µM. From the text:
(§2) (2) CYP positive inducers (Table 58a) and Williams' Medium E (WME) were purchased from Sigma-Aldrich (St. Louis, MO, USA). Dulbecco's phosphate-buffered saline (DPBS, pH 7.4) was purchased from Invitrogen (Carlsbad, CA, USA). Hepatocyte culture medium (serum-free) for CYP induction was purchased from XenoTech (catalog #K2300, Lenexa, KS, USA). The CellTiter 96 AQueous ONE Solution Cell Proliferation Assay was obtained from Promega (Madison, WI, USA). All other chemicals and reagents were of analytical grade or higher. (3) Fresh human hepatocytes (Table 58b) seeded at ˜0.15 million cells/well in 48-well plates (˜0.75 million cells/mL) were purchased from Thermo Fisher Scientific (Grand Island, NY, USA) and BioreclamationIVT (Baltimore, MD, USA).
(§3) Vehicle controls were treated in parallel with hepatocyte culture medium. […] (2) After the CYP induction treatment, the cells were used for a cell viability assay. […] The absorbance of formazan, which is proportional to the number of viable cells, was measured spectrophotometrically using the CellTiter 96 AQueous ONE Solution Cell Proliferation Assay. […] (3) Total RNA was isolated from the treated cells using the RNeasy mini kit (Qiagen, Valencia, CA, USA) and treated with RNase-free DNase (Qiagen) following the manufacturer's protocols. The concentration of RNA was determined using a Qubit Fluorometer with a Qubit RNA HS assay kit (Invitrogen). cDNA was synthesized from up to 1 μg of the total RNA harvested from the cells using a QuantiTect RT kit (Qiagen). Analysis of gene expression by qPCR was performed using the LightCycler 480 System (Roche Diagnostics Corporation, Indianapolis, IN, USA).

In another series the test system is CYP2B6 mRNA. In words: CYP induction (mRNA) in fresh human hepatocytes. The note with it: human.
From the text: as §2, §3

The next series has as its system human hepatocytes. In words: Cell viability (MTS) after CYP induction treatment. The conditions noted are these: donor 2, control inducers (OME, PB, RIF). The procedure:
as §3

Series [3] concerns L5178Y TK+/− mouse lymphoma cells. In words: Mouse Lymphoma Assay (MLA). The note with it: for Avg. MF (Mutant Frequency) / Avg. SG: 24 h treatment, −S9. The procedure: The cells were prepared in Fischer's or RPMI media supplemented with 10% heat-inactivated horse serum, penicillin-streptomycin, Lglutamine, sodium pyruvate and Pluronic F68. In the initial assay, prior to use in the test, the culture was purged of preexisting TK−/− mutations by exposure to THMG treated medium for 1 day, followed by a transfer to THG medium for 1 to 2 days. This was performed 5 to 8 days prior to testing. In the expanded assay a vial of frozen cells was thawed and used within 5 to 8 days of growth. No washing was needed because the cells were purged of preexisting TK−/− mutations by exposure to THMG treated medium for 1 day and then THG medium for 1 day prior to freezing. […] Colonies were counted using an automated colony counter or manually. After 4 or 24 hours of exposure, the cells were grown for recovery and expression for approximately 48 hours before plated in TFT cloning media. A second set of plates were prepared without TFT to assess viability of cells following treatment. […] Colonies observed on the TFT plate were defined as small or large colonies. […] (3) Of note, the metabolic activation system in this assay consisted of a rat liver homogenate (S-9 microsomal fraction), which was delivered to the test system in the presence of a core mix consisting of NADP and cofactors for NADPH-supported oxidation. The S9 was prepared using the following recipe (per treatment tube); 1 mL of 20 mg/mL S9, 32 mg of NADP, 60 mg of isocitric acid, 40 μL of calcium chloride (CaCl2) and 3.0 mL of cell cultural media. All treatments were performed in duplicate. The treatment tubes were placed in a CO2 incubator at 37±1° C. with continuous agitation.

The target of the next series is T1, CYP2B6 (Homo sapiens, UniProt P20813).
T1 sequence (P20813 1-491): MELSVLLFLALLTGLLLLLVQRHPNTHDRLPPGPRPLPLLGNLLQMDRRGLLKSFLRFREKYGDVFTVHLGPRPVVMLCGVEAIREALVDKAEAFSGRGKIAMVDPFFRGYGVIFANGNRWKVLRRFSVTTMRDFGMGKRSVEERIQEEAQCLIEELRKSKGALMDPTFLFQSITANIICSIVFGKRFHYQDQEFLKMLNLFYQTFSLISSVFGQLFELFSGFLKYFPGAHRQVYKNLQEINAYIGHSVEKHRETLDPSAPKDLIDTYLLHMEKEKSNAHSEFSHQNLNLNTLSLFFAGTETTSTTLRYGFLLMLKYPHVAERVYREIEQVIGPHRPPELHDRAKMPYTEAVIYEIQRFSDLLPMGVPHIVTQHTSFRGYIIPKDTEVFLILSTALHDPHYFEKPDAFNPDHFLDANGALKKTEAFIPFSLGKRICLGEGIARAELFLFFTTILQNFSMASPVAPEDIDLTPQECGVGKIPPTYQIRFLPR
In words: in vitro. The conditions noted are these: human, microsomes, pH 7.4. How it is done:
as §1

The nature of series [4]: in vitro.
A short description of series [5]: Liver microsome stability. The conditions noted are these: human liver microsome; control compound. For orientation: Microsomes from liver hold many membrane-bound enzymes, among them those of drug oxidation.
The target of a further series is P-gp (Homo sapiens, UniProt P08183). The note with it: Caco-2; digoxin as substrate; 1.0 μM FL118 or 1.0 μM Valspodar.
Sequence of P-gp (P08183 whole entry): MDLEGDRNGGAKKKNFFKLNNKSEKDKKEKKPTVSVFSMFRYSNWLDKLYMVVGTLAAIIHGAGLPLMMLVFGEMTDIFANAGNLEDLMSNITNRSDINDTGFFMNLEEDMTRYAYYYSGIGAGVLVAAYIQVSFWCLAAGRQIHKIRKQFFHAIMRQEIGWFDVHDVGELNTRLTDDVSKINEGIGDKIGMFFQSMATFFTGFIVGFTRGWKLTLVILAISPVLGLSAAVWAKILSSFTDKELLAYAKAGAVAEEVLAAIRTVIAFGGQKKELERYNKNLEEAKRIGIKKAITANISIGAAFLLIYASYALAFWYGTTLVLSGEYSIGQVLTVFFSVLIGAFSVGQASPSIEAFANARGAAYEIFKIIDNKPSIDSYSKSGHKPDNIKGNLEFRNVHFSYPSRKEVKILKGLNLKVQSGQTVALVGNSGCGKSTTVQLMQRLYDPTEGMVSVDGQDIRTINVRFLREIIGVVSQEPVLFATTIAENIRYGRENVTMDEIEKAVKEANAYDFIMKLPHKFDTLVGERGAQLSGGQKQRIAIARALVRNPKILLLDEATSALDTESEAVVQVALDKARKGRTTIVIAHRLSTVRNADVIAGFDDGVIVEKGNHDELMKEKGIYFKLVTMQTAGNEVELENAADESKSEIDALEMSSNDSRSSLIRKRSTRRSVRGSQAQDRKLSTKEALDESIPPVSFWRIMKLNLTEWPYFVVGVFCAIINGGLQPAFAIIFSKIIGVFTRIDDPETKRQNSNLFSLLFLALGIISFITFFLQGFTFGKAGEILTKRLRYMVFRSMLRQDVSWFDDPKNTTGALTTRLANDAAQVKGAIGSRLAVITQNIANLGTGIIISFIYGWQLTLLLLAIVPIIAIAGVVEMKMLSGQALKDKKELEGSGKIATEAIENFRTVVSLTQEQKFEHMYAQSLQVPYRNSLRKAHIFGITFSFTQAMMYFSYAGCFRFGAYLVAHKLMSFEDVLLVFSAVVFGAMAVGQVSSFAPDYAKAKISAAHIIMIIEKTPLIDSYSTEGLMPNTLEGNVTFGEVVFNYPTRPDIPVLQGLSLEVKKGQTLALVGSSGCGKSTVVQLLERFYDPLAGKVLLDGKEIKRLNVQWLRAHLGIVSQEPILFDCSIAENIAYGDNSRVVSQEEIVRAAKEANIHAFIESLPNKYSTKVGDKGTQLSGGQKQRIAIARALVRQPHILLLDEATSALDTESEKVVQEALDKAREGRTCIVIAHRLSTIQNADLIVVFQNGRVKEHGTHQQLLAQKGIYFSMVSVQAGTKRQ

These results are taken from US20250312469A1 (CANGET BIOTEKPHARMA, priority 2024, published 2025).

Each structure is given as a SMILES string. “And” between values parts separate entries of the source, which are not always exact repeats. Equal values may be shown once.

For `O=c1ccc2ccc(O)cc2o1` [7-hydroxycoumarin, reference compound], in “in vitro [1]”, the microsomal CLint (commonly a measure of how fast metabolising enzymes remove a compound, apart from limits set by blood flow) was determined as 57.3 µL/min/mg.

For `CC[C@@]1(O)C(=O)OCc2c1cc1n(c2=O)Cc2cc3cc4c(cc3nc2-1)OCO4` [API], the “Concentration (dissolution)” value turned out to be 430 ng/mL in [2] (pH 1.2, 5 min); 1550 ng/mL in series [2] (pH 1.2, 10 min); 470 ng/mL in series [2] (pH 1.2, 15 min); 640 ng/mL in series [2] (pH 1.2, 30 min); 510 ng/mL in series [2] (pH 1.2, 45 min); 1430 ng/mL in [2] (pH 1.2, 60 min). The “Concentration (dissolution)” value in [2] (pH 1.2, 90 min) stood at 1360 ng/mL; in [2] (pH 1.2, 120 min), 4470 ng/mL; in series [2] (pH 6.8, 5 min) it was 960 ng/mL; in series [2] (pH 6.8, 10 min) it was 190 ng/mL; in series [2] (pH 6.8, 15 min), 310 ng/mL; in series [2] (pH 6.8, 30 min), 1110 ng/mL. Besides, the “Concentration (dissolution)” value was determined as 310 ng/mL in [2] (pH 6.8, 45 min); 900 ng/mL in [2] (pH 6.8, 60 min); 970 ng/mL in [2] (pH 6.8, 90 min); 1430 ng/mL in series [2] (pH 6.8, 120 min).

In the case of `NS(=O)(=O)c1cc(C2(O)NC(=O)c3ccccc32)ccc1Cl` (centres unmarked) [Chlorthalido], the “RBC to Plasma Partitioning (KRBC/P)” value in the series “Blood partitioning” came out at 19.7.

As for `CC(=O)N1CCN(c2ccc(OCC3COC(Cn4ccnc4)(c4ccc(Cl)cc4Cl)O3)cc2)CC1` (centres unmarked) [Ketoconazole], the “% Inhibition (Positive Control)” value with CYP3A amounted to 94.5%.

`COc1ccc2[nH]c([S+]([O-])Cc3ncc(C)c(OC)c3C)nc2c1` (centres unmarked) [Omeprazole (OME), Omeprazole, reference compound]: the “% of OME-treated Cells” value in the series on CYP1A2 mRNA is 100%.

`CCC1(c2ccccc2)C(=O)NC(=O)NC1=O` [Phenobarbital (PB), Phenobarbital, reference compound]: the “% of PB-treated Cells” value in the series on CYP2B6 mRNA was determined as 100%.

Turning to `CO[C@H]1/C=C/O[C@@]2(C)Oc3c(C)c(O)c4c(O)c(c(/C=N/N5CCN(C)CC5)c(O)c4c3C2=O)NC(=O)/C(C)=C\C=C\[C@H](C)[C@H](O)[C@@H](C)[C@@H](O)[C@@H](C)[C@H](OC(C)=O)[C@@H]1C` [Rifampicin (RIF), Rifampicin, reference compound], the “Formazan Absorbance Mean” value in the series with human hepatocytes amounted to 1.37.

On to `CC[C@@]1(O)C(=O)OCc2c1cc1n(c2=O)Cc2cc3cc4c(cc3nc2-1)OCO4` [Test Article], for which, in series [3] (Test Article 0.1 uM), the “Avg. MF (Mutant Frequency)” value was 345 mutants/1×10^6 cells and the “Avg. SG” value stood at 29.1. Moreover, in series [3] (Test Article .01 uM), the “Avg. MF (Mutant Frequency)” value came out at 125 mutants/1×10^6 cells and the “Avg. SG” value is 66.2.

As to `S=P(N1CC1)(N1CC1)N1CC1` [Thio-TEPA], on CYP2B6, the “% Inhibition (Positive Control)” value was 71.5%.

On to `O=P1(N(CCCl)CCCl)NCCCO1` (centres unmarked) [cyclophosphamide (CP), cyclophosphamide], for which, in [3] (4 h, +S9, 15 μg/mL), the “Average SG” value came to 7.3; the “Day 1 Growth Cell Conc.” value was 4.79E+05 Cell/mL and 5.44E+05 Cell/mL; the “Day 2 Growth Cell Conc.” value is 1.29E+06 Cell/mL and 1.30E+06 Cell/mL; the “Relative Suspension Growth (%)” value was 52.7% and 58.8%. Besides, the “Suspension Growth (SG)” value in [3] (4 h, +S9, 15 μg/mL) was 5.9 and 7.7. In addition, in [3] (4 h, +S9, 17.5 μg/mL), the “Average SG” value was determined as 4.9; the “Day 1 Growth Cell Conc.” value was 3.20E+05 Cell/mL and 3.86E+05 Cell/mL; the “Day 2 Growth Cell Conc.” value is 1.14E+06 Cell/mL and 1.25E+06 Cell/mL; the “Relative Suspension Growth (%)” value is 32.1% and 42.0%. Also, the “Suspension Growth (SG)” value in series [3] (4 h, +S9, 17.5 μg/mL) is 4.2 and 5.5. In series [3] (4 h summary, +S9, 15 μg/mL), the “Avg. % of IMF Small Colony” value turned out to be 62.1%, the “Avg. IMF” value is reported as 1000 ×10^−6, the “Avg. IMF Small Colony” value is reported as 621 ×10^−6 and the “Avg. RTG” value worked out at 21.6%. In addition, in [3] (4 h summary, +S9, 17.5 μg/mL), the “Avg. % of IMF Small Colony” value was determined as 58.6%, the “Avg. IMF” value is on record as 1513 ×10^−6, the “Avg. IMF Small Colony” value is given as 880 ×10^−6 and the “Avg. RTG” value is listed as 6.7%.

As to `COS(C)(=O)=O` [methyl methanesulfonate (MMS), methyl methanesulfonate], in [3] (mouse, 24 h, 5 μg/mL), the “Average SG” value came to 48.2, the “Avg. % of IMF Small Colony” value stood at 52.4%, the “Avg. IMF (Induced Mutant Frequency)” value worked out at 458 mutants/1×10^6 cells and the “Avg. IMF Small Colony” value is 240 mutants/1×10^6 cells. In [3] (mouse, 24 h, 5 μg/mL), the “Avg. RTG (Relative Total Growth)” value was determined as 38.7% and the “Relative Suspension Growth (%)” value turned out to be 62.5%. Also, in series [3] (mouse, 24 h, 8 μg/mL), the “Average SG” value is recorded as 26.2, the “Avg. % of IMF Small Colony” value is 54.7%, the “Avg. IMF (Induced Mutant Frequency)” value is 750 mutants/1×10^6 cells and the “Avg. IMF Small Colony” value was determined as 417 mutants/1×10^6 cells. In addition, in series [3] (mouse, 24 h, 8 μg/mL), the “Avg. RTG (Relative Total Growth)” value worked out at 15.5%.

`C[C@]12CC[C@H]3[C@@H](CCC4=CC(=O)CC[C@@]43C)[C@@H]1CC[C@@H]2O` [testosterone, reference compound]: the intrinsic clearance (hepatocyte CLint) (in general, the capacity of the preparation to metabolise the compound, expressed as a volume cleared per time) in the series “in vitro [4]” (both, human, hepatocytes, pH 7.4) came to 212 µL/min/1e6 cells. Also, the half-life (as a rule, how long it takes for the measured level to halve) in “in vitro [4]” (cryopreserved human hepatocytes, control compound) is 2.2 min. In [5], the CLint was found to be 0.0478 ml/min/mg protein and the “half-life” value is recorded as 29 min. In addition, the intrinsic metabolic clearance (microsomal CLint) in the series “in vitro [1]” came to 20.7 µL/min/mg.

Consider `C/C=C/C[C@@H](C)C(=O)[C@H]1C(=O)N[C@@H](C(C)C)C(=O)N(C)CC(=O)N(C)[C@@H](CC(C)C)C(=O)N[C@@H](C(C)C)C(=O)N(C)[C@@H](CC(C)C)C(=O)N[C@@H](C)C(=O)N[C@H](C)C(=O)N(C)[C@@H](CC(C)C)C(=O)N(C)[C@@H](CC(C)C)C(=O)N(C)[C@@H](C(C)C)C(=O)N1C` [valspodar, reference compound], for which the “P-gp Inhibition Potential Classification” value at P-gp was “Positive (ER≥2.0 without inhibitor, and reduced by ≥50% with inhibitor: Positive)”.
